This is an account of results in ChEMBL document CHEMBL3232860, “Evaluation of structural effects on 5-HT(2A) receptor antagonism by aporphines: identification of a new aporphine with 5-HT(2A) antagonist activity” (Bioorg Med Chem Lett, 2014).

In assay [1] the target is 5-hydroxytryptamine receptor 2A (Homo sapiens) (UniProt P28223). Put plainly: Antagonist activity at human 5-HT2A receptor assessed as inhibition of 5-HT-induced mobilization of internal calcium at 10 uM by FLIPR assay. Type of assay: functional.
Assay [2] deals with T1, Alpha-1A adrenergic receptor (Homo sapiens) (UniProt P35348).
T1 sequence (whole entry): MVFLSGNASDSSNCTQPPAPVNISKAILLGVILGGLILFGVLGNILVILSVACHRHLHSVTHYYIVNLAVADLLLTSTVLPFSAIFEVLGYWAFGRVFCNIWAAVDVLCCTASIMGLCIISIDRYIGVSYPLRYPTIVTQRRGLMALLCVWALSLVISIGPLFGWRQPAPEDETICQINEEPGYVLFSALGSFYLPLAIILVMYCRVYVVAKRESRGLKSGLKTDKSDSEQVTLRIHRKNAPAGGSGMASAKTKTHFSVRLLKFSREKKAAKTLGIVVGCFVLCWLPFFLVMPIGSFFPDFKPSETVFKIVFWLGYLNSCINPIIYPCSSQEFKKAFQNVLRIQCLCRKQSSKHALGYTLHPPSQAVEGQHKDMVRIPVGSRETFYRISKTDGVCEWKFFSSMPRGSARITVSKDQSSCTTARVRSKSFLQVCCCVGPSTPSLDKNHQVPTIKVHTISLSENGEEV
Briefly: Antagonist activity at alpha1A adrenergic receptor (unknown origin) assessed as inhibition of mobilization of internal calcium at 10 uM by FLIPR assay. The format is functional.

The species named for a further assay is Homo sapiens. Put plainly: Selectivity ratio of Ke for human 5-HT2A receptor to Ke for alpha1A adrenergic receptor (unknown origin).

Where only a bound is given, the exact number is not on record here.

Chain of 5-hydroxytryptamine receptor 2A (Homo sapiens) (P28223 whole entry): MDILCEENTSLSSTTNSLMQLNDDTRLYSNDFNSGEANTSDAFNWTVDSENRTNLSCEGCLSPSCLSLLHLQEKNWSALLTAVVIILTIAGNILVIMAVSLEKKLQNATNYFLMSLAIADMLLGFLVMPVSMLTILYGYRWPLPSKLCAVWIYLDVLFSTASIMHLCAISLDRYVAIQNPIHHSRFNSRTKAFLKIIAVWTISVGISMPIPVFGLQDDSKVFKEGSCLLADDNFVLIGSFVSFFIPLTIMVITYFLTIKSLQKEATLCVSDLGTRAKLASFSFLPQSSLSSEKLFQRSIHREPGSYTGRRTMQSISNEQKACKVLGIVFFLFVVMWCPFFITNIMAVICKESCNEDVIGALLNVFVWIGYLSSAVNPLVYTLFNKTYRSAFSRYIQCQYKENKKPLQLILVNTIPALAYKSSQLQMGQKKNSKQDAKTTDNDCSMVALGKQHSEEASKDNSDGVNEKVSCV

As for `C=CCc1cc2c3c(c1O)-c1cc4c(cc1CC3N(C)CC2)OCO4` (stereo unspecified), the Ke in assay [1] and in assay [2] was more than 3000 nM each time.
As to `COc1cc2c3c(c1OC)-c1cc4c(cc1CC3OCC2)OCO4` (stereo unspecified), the Ke in assay [1] and in assay [2] was more than 3000 nM in each case.
`C=CCOc1ccc2c3c1-c1cc4c(cc1CC3N(C)CC2)OCO4` (stereo unspecified): the Ratio Ke in the assay listed under Homo sapiens turned out to be 0.06. Moreover, the Ke in assay [1] is 47 nM; in assay [2] it was 744 nM.
The matching figures for `COc1cc2c3c(c1OC)-c1cc4c(cc1C[C@@H]3N(C)CC2)OCO4`: 3.4, 657 nM and 196 nM.
As for `C=CCc1cc2c3c(c1OC)-c1cc4c(cc1CC3N(C)CC2)OCO4` (stereo unspecified), the Ratio Ke in the assay listed under Homo sapiens was 0.85. Also, the Ke in assay [1] stood at 485 nM; in assay [2] it was 566 nM.
Regarding `COc1cc2c3c(c1OC)-c1cc4c(cc1C[C@H]3N(C)CC2)OCO4`, the Ratio Ke in the assay filed under Homo sapiens worked out at 13.5. Besides, the figures for the Ke in assay [1] and in assay [2] were 946 nM and 70 nM, respectively.
For the compound `CN1CCc2ccc(O)c3c2C1Cc1cc2c(cc1-3)OCO2` (stereo unspecified), the Ke in assay [1] was more than 3000 nM; in assay [2], 2950 nM.
As for `C=CCc1cc2c3c(c1OCC1CC1)-c1cc4c(cc1CC3N(C)CC2)OCO4` (stereo unspecified), the Ratio Ke in the assay filed under Homo sapiens is less than 0.32. In addition, the Ke was 963 nM in assay [1] and more than 3000 nM in assay [2].
The matching figures for `C=CCOc1c(CC=C)cc2c3c1-c1cc4c(cc1CC3N(C)CC2)OCO4` (stereo unspecified): less than 0.45, 1370 nM and more than 3000 nM.
`C=CCOc1c(OC)cc2c3c1-c1cc4c(cc1CC3OCC2)OCO4` (stereo unspecified): the Ke in assay [1] and in assay [2] was more than 3000 nM each time.
